Laboratory results reported in paper PMC4744035, “In Vivo, In Vitro, and In Silico Characterization of Peptoids as Antimicrobial Agents” (PLoS ONE, 2016).
Like-named read-outs stand apart in the source and are kept apart here. Ends that are not written are not given here.

Assays:
[1] = system: 20 bacterial strains (13 Gram-negative, 7 Gram-positive)
Protocol: The MICs of test agents were measured using a modified broth micro-dilution method in Difco Mueller Hinton medium, on a panel of bacterial pathogens that were both susceptible and resistant to common antibiotics (S1 File). Briefly, serial dilutions were performed in 0.01% acetic acid containing 0.2% bovine serum albumin at 10-fold the desired final concentration. Ten μL of the 10-fold concentrated test reagents were added to each well of a 96-well polypropylene microtitre plate containing 90 μL of Mueller Hinton media per well. Bacteria were added to the plate from an overnight culture at a final concentration of 2–7 x 10^5 CFU/mL and incubated overnight at 37°C. The MIC is defined as the concentration at which no growth was observed.
Screening of peptoid antimicrobial activity against a panel of multidrug resistant superbugs was done according to the protocol described in the manuscript. The bacterial strains used in this panel included; P. aeruginosa PAO1 strain H103 [1], P. maltophilia ATCC#13637, S. aureus ATCC#25923 [1], E. faecalis ATCC#29212 [2], and E. cloacae 218R, constitutively expressing Class C chromosomal β-lactamase, were from the Hancock lab strains collection. An MRSA clinical isolate was kindly provided by Anthony Chow (Vancouver General Hospital, Vancouver, Canada). Two Klebsiella pneumoniae and two E. coli clinical isolates expressing extended spectrum β-lactamases (ESBL) were kindly provided by George Zhanel (Health Sciences Centre, Winnipeg, Canada). Vancomycin-resistant clinical isolates of Enterococcus faecalis and E. faecium were obtained from Ana M. Paccagnella (BC Centre for Disease Control, Vancouver, Canada). Three clinical isolates (#9, #198 and #213) of multi-drug resistant P. aeruginosa, were kindly provided by Carlos Kiffer (University of São Paulo, Brazil). […] Three P. aeruginosa clinical isolates of the Liverpool epidemic strain (LES) (H1027, H1030 and LES400) were all kindly provided by Craig Winstanley (University of Liverpool, UK). […] All tested bacterial strains were categorized as biohazard level 2 pathogens.

[2] = system: P. aeruginosa H103 (wild type); assay: microbe, parasite or virus in culture; settings: H103 (wild type)
In short: (§1)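 Modified broth microdilution in Mueller Hinton medium, polypropylene plates; agents serially diluted in 0.01% acetic acid with 0.2% BSA. Inoculum 2–7 x 10^5 CFU/mL from overnight culture, incubated overnight at 37°C. MIC taken as lowest concentration with no visible growth.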

S. aureus C623 (MRSA) = assay: microbe, parasite or virus in culture; settings: C623
In short: as §1

[3] = system: P. aeruginosa H1027 (MDR); assay: microbe, parasite or virus in culture; settings: H1027 (MDR)
In short: as §1

E. coli 63103 (ESBL) = assay: microbe, parasite or virus in culture; settings: 63103 (ESBL)
In short: as §1

[4] = system: E. cloacae 218R Class C β-lactamase; assay: microbe, parasite or virus in culture; settings: 218R Class C β-lactamase
In short: as §1

E. faecium mic80 (VRE) = assay: microbe, parasite or virus in culture; settings: mic80 (VRE)
In short: as §1

P. aeruginosa 213 (MDR) = assay: microbe, parasite or virus in culture; settings: 213 (MDR)
In short: as §1

P. maltophilia ATCC13637 = assay: microbe, parasite or virus in culture; settings: ATCC13637
In short: as §1

E. coli 64771 (ESBL) = assay: microbe, parasite or virus in culture; settings: 64771 (ESBL)
In short: as §1

S. aureus ATCC25923 = assay: microbe, parasite or virus in culture; settings: ATCC25923
In short: as §1

LPS (P. aeruginosa) [5] = assay: Dansyl polymyxin B (DPX) displacement assay, LPS binding; settings: DPX bound to P. aeruginosa LPS; for IC50: read-out: I50 (concentration that displaces 50% of LPS-bound DPX)
Protocol: The Dansyl polymyxin B (DPX) displacement assay was carried out as described earlier. In brief, the fluorescence of DPX (Invitrogen) bound to LPS (P. aeruginosa) was measured by using a Luminescence spectrometer LS 50B (Perkin Elmer) with excitation and emission-wavelengths of 340 nm and 485 nm, respectively. A predetermined amount of DPX, resulting in 90% saturation of LPS, was added to 1 mL of 3 μg/mL of purified LPS. Small aliquots (5 μL of 1 μg/mL) of test compounds were added under constant stirring in the cuvette, and the displacement of DPX was measured for 30–60 seconds as a decrease in fluorescence. The process was repeated until maximum displacement was reached.
The ability of other cationic molecules to displace DPX molecules bound to LPS (monitored by reduction in fluorescence) assesses their relative ability to bind to LPS [33, 34]. While the highly cationic MSI-78 (+10 charge) displaced 100% of bound DPX (equivalent to that of polymyxin B), peptoid 1 and MX-226 displaced 71% and 73% of bound DPX, respectively. […] A second parameter characterizing the LPS/polycation interaction is the I50, which is defined as the concentration of a polycation that displaces 50% of LPS-bound DPX. The I50 is inversely related to the relative affinity of each molecule for binding sites on LPS.

[6] = system: diabetic foot ulcer infection; parameters: method as in PMID 18310135; settings: Phase III, diabetic foot ulcers; cited from earlier work
[7] = system: K. pneumonia 61962 (ESBL); assay: microbe, parasite or virus in culture
In short: as §1

P. aeruginosa 9 (MDR) = assay: microbe, parasite or virus in culture; settings: 9 (MDR)
In short: as §1

[8] = system: K. pneumonia 63575 (ESBL); assay: microbe, parasite or virus in culture
In short: as §1

E. faecium T62764 (VRE) = assay: microbe, parasite or virus in culture; settings: T62764 (VRE)
In short: as §1

E. faecalis F43559 (VRE) = assay: microbe, parasite or virus in culture; settings: F43559 (VRE)
In short: as §1

P. aeruginosa 198 (MDR) = assay: microbe, parasite or virus in culture; settings: 198 (MDR)
In short: as §1

[9] = system: P. aeruginosa LES400 (MDR); assay: microbe, parasite or virus in culture; settings: LES400 (MDR)
In short: as §1

E. faecalis W61950 (VRE) = assay: microbe, parasite or virus in culture; settings: W61950 (VRE)
In short: as §1

E. faecalis ATCC29212 = assay: microbe, parasite or virus in culture; settings: ATCC29212
In short: as §1

[10] = system: bowel perforation and sepsis; parameters: method as in PMID 15294887; settings: cited from earlier work
[11] = system: MDR P. aeruginosa (polymyxin B resistant isolate); parameters: method as in PMID 19635950; settings: MDR P. aeruginosa isolate most resistant to peptoid 1; cited from earlier work
LPS (P. aeruginosa) [12] = system: LPS (P. aeruginosa); parameters: method as in PMID 8702613; settings: divalent cation; read-out: I50 (affinity for LPS); cited from earlier work

| Compound | MIC [2] | MIC (S. aureus C623 (MRSA)) | MIC [3] | MIC (E. coli 63103 (ESBL)) | MIC [4] | MIC (E. faecium mic80 (VRE)) | MIC (P. aeruginosa 213 (MDR)) | MIC (P. maltophilia ATCC13637) | MIC (E. coli 64771 (ESBL)) | MIC (S. aureus ATCC25923) | bound DPX displaced (maximum displacement) (LPS (P. aeruginosa) [5]) | IC50 (LPS (P. aeruginosa) [5]) | other results |
| --- | --- | --- | --- | --- | --- | --- | --- | --- | --- | --- | --- | --- | --- |
| ILRWPWWPWRRK-NH2 (C-terminus assumed) [MX-226, Omiganan, reference compound] | 32 µg/mL | 32 µg/mL | 64 µg/mL | 64 µg/mL | 16 µg/mL | 64 µg/mL | 64 µg/mL | 32 µg/mL | 64 µg/mL | 16 µg/mL | 73% | 5 µM | number of pathogens with MIC ≤ 8 μg/mL ([1]; out of the 20 pathogens tested): none |
| GIGKFLKKAKKFGKAFVKILKK-NH2 (C-terminus assumed) [MSI-78, pexiganan, reference compound] | 1 µg/mL | 16 µg/mL | 2 µg/mL | 16 µg/mL | 2 µg/mL | 4 µg/mL | 8 µg/mL | 2 µg/mL | 2 µg/mL | 64 µg/mL | 100% | 1.4 µM | MICs, range against all Gram-positive strains tested [1]: 4 to 256 µg/mL; median MIC against all Gram-positive strains tested [1]: 16 µg/mL; patients in whom infection was eliminated or significantly reduced [6]: over 90%; MIC [7]: 32 µg/mL; MIC (P. aeruginosa 9 (MDR)): 16 µg/mL; MIC [8]: 8 µg/mL; MIC (E. faecium T62764 (VRE)): 8 µg/mL; MIC (E. faecalis F43559 (VRE)): 16 µg/mL; MIC (P. aeruginosa 198 (MDR)): 4 µg/mL; MIC [9]: 4 µg/mL; MIC (E. faecalis W61950 (VRE)): 256 µg/mL; MIC (E. faecalis ATCC29212): 16 µg/mL; endotoxin plasma levels ([10]; rat model of sepsis): reduce endotoxin plasma levels; reduction of bacterial counts ([10]; rat, caecal ligation and puncture model): four orders of magnitude |
| polymyxin B |  |  |  |  |  |  |  |  |  |  | 100% | 3.2 µM | MIC [11]: 64 µg/mL |
| [Mg+2] [Mg^2+] |  |  |  |  |  |  |  |  |  |  |  |  | IC50 (LPS (P. aeruginosa) [12]): 620 µM |
